Experiments:
Assay type in all cases: toxicity, cell-based
[1] = system: Fibroblast; test: Incucyte cell viability with human fibroblast; conditions: 10 µM, compound concentration 10 uM
[2] = system: U2OS; test: Incucyte cell viability with U2OS; conditions: human, 10 µM, compound concentration 10 uM
[3] = system: HEK-293T; test: Incucyte cell viability with HEK293T; conditions: human, 10 µM, compound concentration 10 uM
[4] = 0 h, replicate number 1, timepoint 0 hours
[5] = 0 h, replicate number 2, timepoint 0 hours
[6] = 6 h, replicate number 1, timepoint 6 hours
[7] = 12 h, replicate number 1, timepoint 12 hours
[8] = 12 h, replicate number 2, timepoint 12 hours
[9] = 18 h, replicate number 1, timepoint 18 hours
[10] = 24 h, replicate number 1, timepoint 24 hours
[11] = 24 h, replicate number 2, timepoint 24 hours
[12] = 6 h, replicate number 2, timepoint 6 hours
[13] = 18 h, replicate number 2, timepoint 18 hours
Also: filed as whole numbers so only -1 and 0 and 1 occur.

CN(C)C(=O)Cn1cc(-c2nc(C3(c4ccc(-c5cnc(N)nc5)cc4)CC3)no2)cn1 [BI 0153]
Growth Rate [1, 4]: 1
Growth Rate [1, 5]: 0
Growth Rate [1, 6]: 0
Growth Rate [1, 7]: 0
Growth Rate [1, 8]: 1
Growth Rate [1, 9]: 0
Growth Rate [1, 10]: 0
Growth Rate [1, 11]: 1
Growth Rate [2, 4]: 0
Growth Rate [2, 6]: 0
Growth Rate [2, 7]: 0
Growth Rate [2, 9]: 0
Growth Rate [2, 10]: 0
Growth Rate [2, 11]: 1
Growth Rate [3, 5]: 1
Growth Rate [3, 6]: 0
Growth Rate [3, 12]: 1
Growth Rate [3, 7]: 0
Growth Rate [3, 8]: 1
Growth Rate [3, 9]: 0
Growth Rate [3, 10]: 0
Growth Rate [3, 11]: 1

CCC(=O)N[C@H]1CC[C@@H](C(=O)N(C)c2ccc(-c3nc4ccccc4o3)cc2)C1 [BI 99179]
Growth Rate [1, 4]: 0
Growth Rate [1, 5]: 1
Growth Rate [1, 6]: 1
Growth Rate [1, 7]: 1
Growth Rate [1, 9]: 0
Growth Rate [1, 10]: 0
Growth Rate [1, 11]: 1
Growth Rate [2, 4]: 0
Growth Rate [2, 6]: 0
Growth Rate [2, 12]: 1
Growth Rate [2, 7]: 1
Growth Rate [2, 9]: 1
Growth Rate [2, 13]: 0
Growth Rate [2, 10]: 1
Growth Rate [2, 11]: 0
Growth Rate [3, 5]: 1
Growth Rate [3, 6]: 0
Growth Rate [3, 7]: 0
Growth Rate [3, 9]: 0
Growth Rate [3, 10]: 0

CCC(=O)N[C@@H]1CC[C@H](C(=O)N(C)c2ccc(-c3nc4ccccc4o3)cc2)C1 [BI 99990]
Growth Rate [1, 4]: 0
Growth Rate [1, 6]: 0
Growth Rate [1, 7]: 0
Growth Rate [1, 9]: 0
Growth Rate [1, 10]: 1
Growth Rate [1, 11]: 0
Growth Rate [2, 4]: 0
Growth Rate [2, 6]: 0
Growth Rate [2, 12]: 1
Growth Rate [2, 7]: 0
Growth Rate [2, 8]: 1
Growth Rate [2, 9]: 0
Growth Rate [2, 10]: 0
Growth Rate [3, 4]: 0
Growth Rate [3, 5]: 1
Growth Rate [3, 6]: 0
Growth Rate [3, 7]: 0
Growth Rate [3, 9]: 0
Growth Rate [3, 10]: 0

CS(=O)(=O)c1cc(C2(NC(=O)c3cncc4c3cnn4-c3ccc(F)cc3)CC2)ccn1 [BI 639667]
Growth Rate [1, 4]: 0
Growth Rate [1, 6]: 1
Growth Rate [1, 12]: 0
Growth Rate [1, 7]: 1
Growth Rate [1, 8]: 0
Growth Rate [1, 9]: 0
Growth Rate [1, 10]: 0
Growth Rate [2, 4]: 0
Growth Rate [2, 5]: 1
Growth Rate [2, 12]: 1
Growth Rate [2, 7]: 1
Growth Rate [2, 8]: 0
Growth Rate [2, 9]: 0
Growth Rate [2, 13]: 1
Growth Rate [2, 10]: 1
Growth Rate [3, 4]: 0
Growth Rate [3, 6]: 1
Growth Rate [3, 12]: 0
Growth Rate [3, 7]: 1
Growth Rate [3, 8]: 0
Growth Rate [3, 9]: 1
Growth Rate [3, 10]: 1

CC(C)NCC(O)c1ccc(N)c(C#N)c1 (centres undefined) [CIMATEROL]
Growth Rate [1, 4]: 0
Growth Rate [1, 8]: 1
Growth Rate [1, 13]: 0
Growth Rate [1, 11]: 1
Growth Rate [2, 4]: 0
Growth Rate [2, 6]: 1
Growth Rate [2, 7]: 1
Growth Rate [2, 9]: 0
Growth Rate [2, 13]: 1
Growth Rate [2, 10]: 1
Growth Rate [2, 11]: 0
Growth Rate [3, 4]: 0
Growth Rate [3, 6]: 0
Growth Rate [3, 12]: 1
Growth Rate [3, 7]: 0
Growth Rate [3, 8]: 1
Growth Rate [3, 9]: 0
Growth Rate [3, 13]: 1
Growth Rate [3, 10]: 0

O=C(c1ccc(F)c(F)c1Nc1ccc(I)cc1F)N1CC(O)([C@@H]2CCCCN2)C1 [COBIMETINIB]
Growth Rate [1, 10]: 1
Growth Rate [2, 4]: 0
Growth Rate [2, 6]: 0
Growth Rate [2, 12]: 1
Growth Rate [2, 7]: 0
Growth Rate [2, 9]: 0
Growth Rate [2, 10]: 0
Growth Rate [3, 6]: 0
Growth Rate [3, 8]: 0
Growth Rate [3, 13]: 1
Growth Rate [3, 10]: 1
Growth Rate [3, 11]: 0

CN(C)CC[C@@H](c1ccc(Cl)cc1)c1ccccn1.O=C(O)/C=C\C(=O)O [DEXCHLORPHENIRAMINE MALEATE]
Growth Rate [1, 4]: 0
Growth Rate [1, 6]: 1
Growth Rate [1, 7]: 1
Growth Rate [1, 9]: 1
Growth Rate [1, 13]: 0
Growth Rate [1, 10]: 1
Growth Rate [1, 11]: 0
Growth Rate [2, 4]: 0
Growth Rate [2, 12]: 0
Growth Rate [2, 7]: 1
Growth Rate [2, 8]: 0
Growth Rate [2, 9]: 0
Growth Rate [2, 10]: 1
Growth Rate [2, 11]: 0
Growth Rate [3, 4]: 0
Growth Rate [3, 6]: 1
Growth Rate [3, 12]: 0
Growth Rate [3, 7]: 1
Growth Rate [3, 9]: 1
Growth Rate [3, 10]: 1

CCCCC[C@H](O)/C=C/[C@@H]1[C@@H](C/C=C\CCCC(=O)O)[C@@H](O)C[C@H]1O [DINOPROST]
Growth Rate [1, 4]: 0
Growth Rate [1, 12]: 1
Growth Rate [1, 8]: 0
Growth Rate [1, 13]: 1
Growth Rate [1, 11]: 1
Growth Rate [2, 4]: 0
Growth Rate [2, 12]: 0
Growth Rate [2, 7]: 1
Growth Rate [2, 9]: 1
Growth Rate [2, 10]: 1
Growth Rate [3, 4]: 1
Growth Rate [3, 5]: 0
Growth Rate [3, 6]: 0
Growth Rate [3, 7]: 0
Growth Rate [3, 9]: 0
Growth Rate [3, 10]: 0

CCC1(C2=NCCN2)Cc2ccccc2O1 (centres undefined) [EFAROXAN]
Growth Rate [1, 4]: 0
Growth Rate [1, 5]: 1
Growth Rate [1, 6]: 0
Growth Rate [1, 7]: 0
Growth Rate [1, 9]: 0
Growth Rate [1, 10]: 0
Growth Rate [2, 4]: 0
Growth Rate [2, 5]: 1
Growth Rate [2, 12]: 1
Growth Rate [2, 7]: 0
Growth Rate [2, 8]: 1
Growth Rate [2, 9]: 0
Growth Rate [2, 10]: 1
Growth Rate [3, 4]: 1
Growth Rate [3, 5]: 0
Growth Rate [3, 6]: 1
Growth Rate [3, 7]: 1
Growth Rate [3, 9]: 1
Growth Rate [3, 10]: 1
